Results as given in patent US20120095029A1, “IPP COMPLEX AS MARKER FOR ERLOTINIB TREATMENT” (Hoffmann-La Roche Inc., priority 2010, published 2012).
Structures can show the parent of a compound that is named as a salt.

Key:
ILK = ILK (Homo sapiens, UniProt Q13418); details: H292 cell lysate preincubated with free compound (0-400 μM), then beads with immobilized compound
alpha-parvin = alpha-parvin (Homo sapiens, UniProt Q9NVD7); details: H292 cell lysate preincubated with free compound (0-400 μM), then beads with immobilized compound
PINCH = PINCH (Homo sapiens, UniProt P48059); details: H292 cell lysate preincubated with free compound (0-400 μM), then beads with immobilized compound
NSCLC patients [1] = details: single agent; patients for whom standard therapy for advanced disease has failed; cited from earlier work
H358 cells = test: Testing EMT transition on H358 NSCLC cell line (TGFbeta3 treatment, western blot); assay type: cell-based, human; details: 10 ng/mL TGFbeta3 plus compound 5 μM; for Level of E-cadherin: up to 13 days
Experimental: Cell culture medium was renewed every 3 days. Cell lysis was performed in PBS containing 1% NP-40 and protease inhibitors. After clearing by centrifugation at 12,000 g for 15 min at 4° C., proteins were separated by SDS-PAGE and processed for western blot analysis. Images were acquired using a compact digital camera (Luminescent Image Analyzer: Fujifilm, Tokyo, Japan) and quantified with ImageQuant TL (GE Healthcare, Waukesha, Wis., USA).

NSCLC = details: second line therapy of NSCLC; cited from earlier work
NSCLC patients [2] = details: unselected patient population; cited from earlier work
patients with NSCLC = details: second line after cisplatin-based first-line regimens failed; ECOG 0, 1 or 2; cited from earlier work

alpha-parvin, sequence (Q9NVD7 2-372 limits assumed): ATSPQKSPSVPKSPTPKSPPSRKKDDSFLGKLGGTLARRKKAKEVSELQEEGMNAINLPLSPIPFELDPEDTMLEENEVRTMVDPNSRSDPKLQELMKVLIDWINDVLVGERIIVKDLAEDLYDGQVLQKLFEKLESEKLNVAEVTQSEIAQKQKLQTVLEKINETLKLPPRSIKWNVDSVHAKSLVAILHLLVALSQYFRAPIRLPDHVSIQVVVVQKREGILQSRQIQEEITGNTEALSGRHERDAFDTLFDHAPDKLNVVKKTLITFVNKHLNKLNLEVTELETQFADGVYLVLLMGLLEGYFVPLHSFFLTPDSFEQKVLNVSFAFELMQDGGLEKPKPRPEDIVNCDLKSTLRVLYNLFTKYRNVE
alpha-parvin, sequence (Q13418 whole entry partner): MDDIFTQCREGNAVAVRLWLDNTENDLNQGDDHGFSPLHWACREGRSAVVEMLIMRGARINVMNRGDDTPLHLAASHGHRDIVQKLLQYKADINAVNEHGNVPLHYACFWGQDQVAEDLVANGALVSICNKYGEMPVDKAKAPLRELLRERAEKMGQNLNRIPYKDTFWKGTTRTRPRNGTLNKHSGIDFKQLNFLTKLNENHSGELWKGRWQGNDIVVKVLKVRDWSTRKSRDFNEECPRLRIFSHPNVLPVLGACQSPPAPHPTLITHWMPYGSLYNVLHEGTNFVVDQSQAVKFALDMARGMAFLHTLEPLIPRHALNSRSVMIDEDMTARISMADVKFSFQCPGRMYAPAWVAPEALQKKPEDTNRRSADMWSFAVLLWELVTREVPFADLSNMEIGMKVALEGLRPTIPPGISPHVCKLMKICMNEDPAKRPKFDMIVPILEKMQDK
alpha-parvin, sequence (P48059 2-325 partner limits assumed): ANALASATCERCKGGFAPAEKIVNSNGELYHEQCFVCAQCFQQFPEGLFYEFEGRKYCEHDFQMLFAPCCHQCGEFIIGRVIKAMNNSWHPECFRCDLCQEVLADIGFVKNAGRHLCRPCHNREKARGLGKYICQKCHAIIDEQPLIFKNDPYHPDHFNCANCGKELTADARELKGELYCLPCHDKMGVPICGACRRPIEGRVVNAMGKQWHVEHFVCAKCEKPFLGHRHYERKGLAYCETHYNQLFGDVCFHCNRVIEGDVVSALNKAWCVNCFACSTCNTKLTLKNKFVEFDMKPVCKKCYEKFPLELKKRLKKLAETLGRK
PINCH, sequence (P48059 2-325): as the sequence (P48059 2-325 partner limits assumed) above
PINCH, sequence (Q13418 whole entry partner): as the sequence (Q13418 whole entry partner) above
PINCH, sequence (Q9NVD7 2-372 partner): as the sequence (Q9NVD7 2-372 limits assumed) above
ILK, sequence (Q13418 whole entry): as the sequence (Q13418 whole entry partner) above

Structure (SMILES) | Signal Reduction (%) ILK (ILK) | Signal Reduction (%) alpha-parvin (alpha-parvin) | Signal Reduction (%) PINCH (PINCH) | Survival of NSCLC patients (NSCLC patients [1]) | ILK expression level (H358 cells) | PINCH expression level (H358 cells) | Level of E-cadherin (H358 cells) | Efficacy compared with docetaxel (NSCLC) | Side effects compared with docetaxel (NSCLC) | Clinical benefit (NSCLC patients [2]) | Survival (patients with NSCLC)
C#Cc1cccc(Nc2ncnc3cc(OCCOC)c(OCCOC)cc23)c1 [Erlotinib hydrochloride, erlotinib hydrochloride] | 77.3% | 79.5% | 87.7% | significantly prolongs and improves the survival | do not change | do not change | remained unchanged |  |  |  | 
Nc1nc2[nH]cc(CCc3ccc(C(=O)N[C@@H](CCC(=O)O)C(=O)O)cc3)c2c(=O)[nH]1 [pemetrexed] |  |  |  |  |  |  |  | clinically equivalent efficacy | significantly fewer side effects |  | 
COc1cc2ncnc(Nc3ccc(F)c(Cl)c3)c2cc1OCCCN1CCOCC1 [Gefitinib, gefitinib] |  | 0.0% | 0.0% |  | not so pronounced | not so pronounced | fails to inhibit the TGFb3-mediated decrease of E-cadherin levels |  |  | does not seem to confer clinical benefit | 
CC(=O)O[C@@]12CO[C@@H]1C[C@H](O)[C@@]1(C)C(=O)[C@H](O)C3=C(C)[C@@H](OC(=O)[C@H](O)[C@@H](NC(=O)OC(C)(C)C)c4ccccc4)C[C@@](O)([C@@H](OC(=O)c4ccccc4)[C@H]21)C3(C)C [docetaxel] |  |  |  |  |  |  |  |  |  |  | improved survival
